From patent US20250186463A1, “ABIRATERONE DECANOATE PRODRUGS AND USE IN THERAPY” (PROPELLA THERAPEUTICS, INC., priority 2022, published 2025)
Marks after values point to notes of the source that are not given here.

Test system: serum progesterone
Test: Phase 1/2a study: serum progesterone
Type: in vivo, human
Experimental: This is a Phase 1/2a, Open-label, Multicenter Study of Intramuscular Abiraterone Decanoate Depot in Patients with Advanced Prostate Cancer.
Formulations and dosing regimen: The formulation used in the study (abiraterone decanoate for intramuscular [i.m.] injection) is a solution formulation of abiraterone decanoate at a concentration of 180 mg/mL and will be provided as a 10 mL vial containing 990 mg of abiraterone decanoate in 5.5 mL of solution. See further details of the formulations in Example 2 (for each milliliter: Abiraterone Decanoate, about 180 mg/mL; Benzyl Alcohol, about 100 mg/mL; Benzyl Benzoate, about 200 mg/mL; and Corn oil, q.s. to 1 mL). Abiraterone Decanoate will be administered as an i.m. injection every 84 days (±3 days). Dose escalation will proceed with a modified Fibonacci sequence. Based on emerging data, intermediate doses may be evaluated.
Study Design: This is a Phase 1/2a, Open-label, Multicenter Study of Intramuscular Abiraterone Decanoate Depot in Patients with Advanced Prostate Cancer. In Phase 1, all patients will receive i.m. Abiraterone Decanoate depot in 84-day treatment cycles combined with daily oral prednisone or dexamethasone. In Phase 2a, patients will be randomized 1:1 and treated with i.m. Abiraterone Decanoate depot in 84-day treatment cycles in combination with dexamethasone (Arm A) or abiraterone acetate daily+prednisone (Arm B). In both Phases, patients will undergo scheduled periodic assessments of serum testosterone levels. Participants may continue treatment until they meet any discontinuation criteria outlined in the protocol.
Pharmacodynamic Analysis: Determination of Prostate Specific Antigen (PSA), serum testosterone, dehydroepiandrosterone (DHEA), dehydroepiandrosterone sulfate (DHEA-S), androstenedione, dihydrotestosterone (DHT), progesterone, cortisol, adrenocorticotropic hormone (ACTH), corticosterone, 11-dexoycorticosterone (11-DOC) and 11-deoxycortisol.
Based on the available data, the recommended dose for Phase 2 is about 1260 mg abiraterone decanoate once every three months (12 weeks). All cohorts 1 and 2 in this clinical study were treated with prednisone, 5 mg orally once or twice daily; and all cohorts 3-5 were treated with dexamethasone, 0.5 mg orally once daily. The results shown herein for these cohorts should be understood accordingly.
See also Table 3B below. […] See also FIG. 11B for the absolute serum progesterone levels for cohorts 4 and 5, with the LLOQ being 1.59 nM. It should be noted that the maximum serum progesterone level observed for cohorts 1-3 is 2.5 nM. FIGS. 3F and 3G show the serum 11-deoxycorticosterone and corticosterone response in cohorts 3, 4, and 5, the trend is similar to that observed for progesterone levels above. See a summary shown in the Table 3C below for the first cycle.

## CCCCCCCCCC(=O)O[C@H]1CC[C@@]2(C)C(=CC[C@@H]3[C@@H]2CC[C@]2(C)C(c4cccnc4)=CC[C@@H]32)C1 [abiraterone decanoate]
720 mg (N = 4), Day 14
  Progesterone Changes during cycle 1, Percent (%): −1%
720 mg (N = 4), Day 28
  Progesterone Changes during cycle 1, Percent (%): −2%
720 mg (N = 4), Day 56
  Progesterone Changes during cycle 1, Percent (%): 0%
720 mg (N = 4), Day 84
  Progesterone Changes during cycle 1, Percent (%): 0%
1,260 mg (N = 6), Day 14
  Progesterone Changes during cycle 1, Percent (%): 20%
1,260 mg (N = 6), Day 28
  Progesterone Changes during cycle 1, Percent (%): 35%
1,260 mg (N = 6), Day 56
  Progesterone Changes during cycle 1, Percent (%): 0%
1,260 mg (N = 6), Day 84
  Progesterone Changes during cycle 1, Percent (%): 0%
1,800 mg (N = 8), Day 14
  Progesterone Changes during cycle 1, Percent (%): 165%
1,800 mg (N = 8), Day 28
  Progesterone Changes during cycle 1, Percent (%): 86%
1,800 mg (N = 8), Day 56
  Progesterone Changes during cycle 1, Percent (%): 12%
1,800 mg (N = 8), Day 84
  Progesterone Changes during cycle 1, Percent (%): 13%
Cohort 1, 180 mg i.m., Study Day 1 (baseline)
  Serum Progesterone (% CFB): 0%
Cohort 1, 180 mg i.m., Study Day 14
  Serum Progesterone (% CFB): 0%
Cohort 1, 180 mg i.m., Study Day 28
  Serum Progesterone (% CFB): 8%
Cohort 1, 180 mg i.m., Study Day 56
  Serum Progesterone (% CFB): 0%
Cohort 1, 180 mg i.m., Study Day 70
  Serum Progesterone (% CFB): 0%
Cohort 2, 360 mg i.m., Study Day 1 (baseline)
  Serum Progesterone (% CFB): 0%
Cohort 2, 360 mg i.m., Study Day 14
  Serum Progesterone (% CFB): 37%
Cohort 2, 360 mg i.m., Study Day 28
  Serum Progesterone (% CFB): 8%
Cohort 2, 360 mg i.m., Study Day 56
  Serum Progesterone (% CFB): 0%
Cohort 2, 360 mg i.m., Study Day 84
  Serum Progesterone (% CFB): 0%
Cohort 2, 360 mg i.m., Study Day 168
  Serum Progesterone (% CFB): 0%
Cohort 2, 360 mg i.m., Study Day 252
  Serum Progesterone (% CFB): 0%
Cohort 3, 720 mg i.m., Study Day 1 (baseline)
  Serum Progesterone (% CFB): 0%
Cohort 3, 720 mg i.m., Study Day 14
  Serum Progesterone (% CFB): −1%
Cohort 3, 720 mg i.m., Study Day 28
  Serum Progesterone (% CFB): −2%
Cohort 3, 720 mg i.m., Study Day 56
  Serum Progesterone (% CFB): 0%
Cohort 3, 720 mg i.m., Study Day 84
  Serum Progesterone (% CFB): 0%
Cohort 3, 720 mg i.m., Study Day 168
  Serum Progesterone (% CFB): 6%
Cohort 3, 720 mg i.m., Study Day 224
  Serum Progesterone (% CFB): 0%
Cohort 3, 720 mg i.m., Study Day 252
  Serum Progesterone (% CFB): 0%
Cohort 4, 1260 mg i.m., Study Day 1 (baseline)
  Serum Progesterone (% CFB): 0%
Cohort 4, 1260 mg i.m., Study Day 14
  Serum Progesterone (% CFB): 20%
Cohort 4, 1260 mg i.m., Study Day 28
  Serum Progesterone (% CFB): 35%
Cohort 4, 1260 mg i.m., Study Day 42
  Serum Progesterone (% CFB): 0%
Cohort 4, 1260 mg i.m., Study Day 56
  Serum Progesterone (% CFB): 0%
Cohort 4, 1260 mg i.m., Study Day 70
  Serum Progesterone (% CFB): 22%
Cohort 4, 1260 mg i.m., Study Day 84
  Serum Progesterone (% CFB): 0%
Cohort 4, 1260 mg i.m., Study Day 112
  Serum Progesterone (% CFB): 6%
Cohort 4, 1260 mg i.m., Study Day 140
  Serum Progesterone (% CFB): 0%
Cohort 4, 1260 mg i.m., Study Day 168
  Serum Progesterone (% CFB): 1%
Cohort 4, 1260 mg i.m., Study Day 224
  Serum Progesterone (% CFB): 0%
Cohort 4, 1260 mg i.m., Study Day 252
  Serum Progesterone (% CFB): 0%
Cohort 5, 1800 mg i.m., Study Day 1 (baseline)
  Serum Progesterone (% CFB): 0%
Cohort 5, 1800 mg i.m., Study Day 14
  Serum Progesterone (% CFB): 165%
Cohort 5, 1800 mg i.m., Study Day 28
  Serum Progesterone (% CFB): 86%
Cohort 5, 1800 mg i.m., Study Day 42
  Serum Progesterone (% CFB): 0%
Cohort 5, 1800 mg i.m., Study Day 56
  Serum Progesterone (% CFB): 12%
Cohort 5, 1800 mg i.m., Study Day 70
  Serum Progesterone (% CFB): 0%
Cohort 5, 1800 mg i.m., Study Day 84
  Serum Progesterone (% CFB): 8%
Cohort 5, 1800 mg i.m., Study Day 140
  Serum Progesterone (% CFB): 0%
Cohort 5, 1800 mg i.m., Study Day 168
  Serum Progesterone (% CFB): −7%
Cohort 5, 1800 mg i.m., Study Day 196
  Serum Progesterone (% CFB): 52%
Cohort 5, 1800 mg i.m., Study Day 224
  Serum Progesterone (% CFB): −7%
Cohort 5, 1800 mg i.m., Study Day 252
  Serum Progesterone (% CFB): 0%
Patient 1, cohort 1, 180 mg, FIG. 5
  progesterone change from baseline: no progesterone increase from baseline
Patient 2, cohort 2, 360 mg, FIG. 6
  transient up stream steroid (progesterone) increase from baseline: returned to baseline
All cohorts
  increases of progesterone levels during the second cycle: no significant increases
All cohorts (180-1800 mg)
  progesterone changes from baseline: not significant
Cohort 5 (1800 mg), after first administration
  time at which progesterone level returned to baseline: ~6 week
Cohorts 1-3 (180, 360, 720 mg)
  maximum serum progesterone level observed: 2.5 nM
Patient 02-1403, Cohort 4, 1260 mg, mCRPC, Visit C4D28, assay LLOQ = 1.59 nM
  Progesterone at Visit Day (nM): <LLOQ
Patient 02-1405, Cohort 4, 1260 mg, mCRPC, Visit C1D56, assay LLOQ = 1.59 nM
  Progesterone at Visit Day (nM): <LLOQ
Patient 02-1504, Cohort 5, 1800 mg, mCRPC, Visit C1D28, assay LLOQ = 1.59 nM
  Progesterone at Visit Day (nM): <LLOQ
Patient 04-1406, Cohort 4, 1260 mg, mCSPC, Visit C1D56, average of Day 28 and Day 70 values
  Progesterone at Visit Day (nM): 2.90† nM
Patient 04-1503, Cohort 5, 1800 mg, mCSPC, Visit C1D84, assay LLOQ = 1.59 nM
  Progesterone at Visit Day: 2.54 nM
Patient 04-1506, Cohort 5, 1800 mg, mCRPC, Visit C1D28, assay LLOQ = 1.59 nM
  Progesterone at Visit Day (nM): <LLOQ
Patient 06-1401, Cohort 4, 1260 mg, mCRPC, Visit C3D84, assay LLOQ = 1.59 nM
  Progesterone at Visit Day (nM): <LLOQ
Patient 06-1402, Cohort 4, 1260 mg, mCRPC, Visit C4D28, assay LLOQ = 1.59 nM
  Progesterone at Visit Day (nM): <LLOQ
Patient 06-1404, Cohort 4, 1260 mg, mCSPC, Visit C2D84, assay LLOQ = 1.59 nM
  Progesterone at Visit Day (nM): <LLOQ
Patient 06-1501, Cohort 5, 1800 mg, mCRPC, Visit C1D84, assay LLOQ = 1.59 nM
  Progesterone at Visit Day (nM): <LLOQ
Patient 06-1502, Cohort 5, 1800 mg, mCSPC, Visit C2D84, assay LLOQ = 1.59 nM
  Progesterone at Visit Day (nM): <LLOQ
